# Reference: ChEMBL document CHEMBL1201862, “PubChem BioAssay data set” (2004)
#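 The compound was tested at five concentrations on cells cultured in 96-well plates, with a 48-hour exposure period. GI50 is the concentration that inhibits growth by half.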 The source made the active and inactive calls. Cut-off read from the data, not from the text of the source: active = GI50 up to about 1.1 µM and inactive = higher. Positions of bridges follow the written chain, without caps; N, C: chain ends. Non-standard residues stand in square brackets, D forms with d. Residues, ends and D or L forms follow the SMILES beside them. *: point of attachment. PhAc = O=C(Cc1ccccc1)*
# Columns and labels:
# Test in all cases: NCI tumour cell line growth inhibition, 48 h
# [1] = system: A498
# [2] = system: A549
# [3] = system: ACHN
# [4] = system: EKVX
# [5] = system: Hs-578T
# [6] = system: IGROV-1
# [7] = system: KM12
# [8] = system: M14
# [9] = system: MCF7
# [10] = system: NCI-H23
# [11] = system: NCI-H460
# [12] = system: NCI/ADR-RES
# [13] = system: OVCAR-3
# [14] = system: OVCAR-5
# [15] = system: RXF 393
# [16] = system: SK-MEL-2
# [17] = system: SNB-19
# [18] = system: SNB-75
# [19] = system: SW-620
# [20] = system: UACC-257
SMILES,GI50 [1],GI50 [2],GI50 [3],GI50 [4],GI50 [5],GI50 [6],GI50 [7],GI50 [8],GI50 [9],GI50 [10],GI50 [11],GI50 [12],GI50 [13],GI50 [14],GI50 [15],GI50 [16],GI50 [17],GI50 [18],GI50 [19],GI50 [20]
O=C(O)CCc1nc(-c2ccccc2-n2cccc2)no1,> 100 µM (inactive),> 100 µM (inactive),> 100 µM (inactive),> 100 µM (inactive),> 100 µM (inactive),73.1 µM (inactive),5.89 µM (inactive),89.1 µM (inactive),49.3 µM (inactive),> 100 µM (inactive),73.6 µM (inactive),> 100 µM (inactive),29 µM (inactive),> 100 µM (inactive),> 100 µM (inactive),> 100 µM (inactive),> 100 µM (inactive),> 100 µM (inactive),> 100 µM (inactive),> 100 µM (inactive)
C1=Cc2nccc3cc4c(c(c23)N1)OCO4,21.6 µM (inactive),5.3 µM (inactive),4.52 µM (inactive),9.55 µM (inactive),3.58 µM (inactive),2.56 µM (inactive),6.73 µM (inactive),18.4 µM (inactive),2.32 µM (inactive),6.92 µM (inactive),4.36 µM (inactive),12.2 µM (inactive),10.9 µM (inactive),10.4 µM (inactive),1.64 µM (inactive),13.3 µM (inactive),7.08 µM (inactive),6.93 µM (inactive),5.68 µM (inactive),17.5 µM (inactive)
CC1CC(Br)C(=O)O1 (stereo not given),> 100 µM (inactive),> 100 µM (inactive),> 100 µM (inactive),> 100 µM (inactive),> 100 µM (inactive),> 100 µM (inactive),> 100 µM (inactive),> 100 µM (inactive),> 100 µM (inactive),> 100 µM (inactive),> 100 µM (inactive),> 100 µM (inactive),> 100 µM (inactive),> 100 µM (inactive),> 100 µM (inactive),> 100 µM (inactive),> 100 µM (inactive),70 µM (inactive),> 100 µM (inactive),> 100 µM (inactive)
Cc1ccc(S(=O)(=O)n2cc(-c3cnc(N)c(Br)n3)c3ccccc32)cc1,2.68 µM (inactive),2.22 µM (inactive),5.46 µM (inactive),3.48 µM (inactive),0.863 µM (active),1.3 µM (inactive),1.36 µM (inactive),1.37 µM (inactive),0.757 µM (active),1.56 µM (inactive),3.18 µM (inactive),2.04 µM (inactive),1.02 µM (active),4.39 µM (inactive),0.484 µM (active),10.8 µM (inactive),1.01 µM (active),1.42 µM (inactive),1.04 µM (active),12.9 µM (inactive)
CC(C)(C)N(Cc1ccccc1)C(=O)/C=C\[S+]([O-])c1ccccc1 (stereo not given),13.4 µM (inactive),11.5 µM (inactive),4.71 µM (inactive),10.5 µM (inactive),2.07 µM (inactive),4.79 µM (inactive),5.69 µM (inactive),2.51 µM (inactive),2.92 µM (inactive),2.86 µM (inactive),4.1 µM (inactive),2.55 µM (inactive),2.48 µM (inactive),13.6 µM (inactive),3.8 µM (inactive),2.8 µM (inactive),9.77 µM (inactive),10.9 µM (inactive),2.15 µM (inactive),5.08 µM (inactive)
CSCCCNC(=O)[C@H](CSC)NC(=O)c1csc(CCNC(=O)[C@@H](NSc2ccccc2[N+](=O)[O-])C(C)O)n1 (stereo not given in full),> 100 µM (inactive),> 100 µM (inactive),> 100 µM (inactive),> 100 µM (inactive),> 100 µM (inactive),> 100 µM (inactive),> 100 µM (inactive),> 100 µM (inactive),> 100 µM (inactive),> 100 µM (inactive),> 100 µM (inactive),> 100 µM (inactive),> 100 µM (inactive),> 100 µM (inactive),> 100 µM (inactive),> 100 µM (inactive),> 100 µM (inactive),28.2 µM (inactive),> 100 µM (inactive),> 100 µM (inactive)
O=C1C=CC(=O)[C@H]2C3C=CC(C4C3C3(Cl)C(Cl)=C(Cl)[C@]4(Cl)C3(Cl)Cl)[C@@H]12 (stereo not given in full),16 µM (inactive),4.03 µM (inactive),8.55 µM (inactive),4.02 µM (inactive),10.9 µM (inactive),5.79 µM (inactive),4.92 µM (inactive),4.3 µM (inactive),3.91 µM (inactive),12.6 µM (inactive),4.02 µM (inactive),5.83 µM (inactive),2.95 µM (inactive),7.46 µM (inactive),4.17 µM (inactive),7.76 µM (inactive),5.62 µM (inactive),12.2 µM (inactive),9.57 µM (inactive),2.32 µM (inactive)
CC(C)(C)OC(=O)NC(Cc1ccc(OCc2ccccc2)cn1)C(=O)N1CCSCC1 (stereo not given),45.4 µM (inactive),56.4 µM (inactive),57.3 µM (inactive),41.6 µM (inactive),77.3 µM (inactive),75.9 µM (inactive),36.4 µM (inactive),54.8 µM (inactive),38.3 µM (inactive),28.6 µM (inactive),38 µM (inactive),27.7 µM (inactive),62.2 µM (inactive),93.1 µM (inactive),33.3 µM (inactive),38.7 µM (inactive),> 100 µM (inactive),24 µM (inactive),81.7 µM (inactive),26.4 µM (inactive)
CCCC(=O)OC[n+]1ccc(-c2c(COC(=O)NC(C)C)c(COC(=O)NC(C)C)c3n2CCC3)cc1,39.7 µM (inactive),> 100 µM (inactive),15.4 µM (inactive),> 100 µM (inactive),> 100 µM (inactive),> 100 µM (inactive),> 100 µM (inactive),> 100 µM (inactive),80.7 µM (inactive),> 100 µM (inactive),76.4 µM (inactive),> 100 µM (inactive),> 100 µM (inactive),> 100 µM (inactive),34.5 µM (inactive),> 100 µM (inactive),> 100 µM (inactive),87.3 µM (inactive),> 100 µM (inactive),> 100 µM (inactive)
CC1C2(C)OC(=N)C(C#N)(C(c3cccc([N+](=O)[O-])c3)O2)C1(C#N)C#N (stereo not given),> 100 µM (inactive),> 100 µM (inactive),34 µM (inactive),27.9 µM (inactive),27.1 µM (inactive),42.6 µM (inactive),44.9 µM (inactive),19.1 µM (inactive),22.5 µM (inactive),33.6 µM (inactive),13.5 µM (inactive),64.9 µM (inactive),> 10 µM (inactive),34.7 µM (inactive),21.4 µM (inactive),19.9 µM (inactive),37.1 µM (inactive),40.6 µM (inactive),12.7 µM (inactive),19.6 µM (inactive)
C#CCn1ncc2c(SCc3ccccc3)ncnc21,> 100 µM (inactive),> 100 µM (inactive),> 100 µM (inactive),97.7 µM (inactive),> 100 µM (inactive),> 100 µM (inactive),> 100 µM (inactive),50.7 µM (inactive),11.4 µM (inactive),> 100 µM (inactive),> 100 µM (inactive),> 100 µM (inactive),> 100 µM (inactive),> 100 µM (inactive),> 100 µM (inactive),> 100 µM (inactive),> 100 µM (inactive),40.8 µM (inactive),> 100 µM (inactive),70 µM (inactive)
CC(=O)Nc1ccc(/C=C/[N+](=O)[O-])cc1,5.19 µM (inactive),4.47 µM (inactive),3.42 µM (inactive),3.13 µM (inactive),4.85 µM (inactive),2.37 µM (inactive),5.68 µM (inactive),2.59 µM (inactive),2.79 µM (inactive),3.09 µM (inactive),7.21 µM (inactive),8.09 µM (inactive),2.98 µM (inactive),2.58 µM (inactive),2.07 µM (inactive),9.66 µM (inactive),7.19 µM (inactive),1.5 µM (inactive),2.64 µM (inactive),5.21 µM (inactive)
O=C(Cc1ccccc1)N[C@@H]1COC(=O)[C@@H]2CCCN2C(=O)[C@@H]2CCCN2C1=O (PhAc-[dS]-Pro-Pro; ester 1-C),> 100 µM (inactive),> 100 µM (inactive),> 100 µM (inactive),> 100 µM (inactive),> 100 µM (inactive),> 100 µM (inactive),> 100 µM (inactive),> 100 µM (inactive),> 100 µM (inactive),> 100 µM (inactive),> 100 µM (inactive),> 100 µM (inactive),> 100 µM (inactive),> 100 µM (inactive),> 100 µM (inactive),> 100 µM (inactive),> 100 µM (inactive),0.0254 µM (active),> 100 µM (inactive),> 100 µM (inactive)
